Results on 15 molecules are retold here after patent US5116971A, “Substituted-1,4-diazepines” (Boehringer Ingelheim KG, priority 1986, dated 1992).

pIC50: −log10 of the molar value.

In the first experiment the test system is human platelets (aggregation induced by PAF). Put plainly: inhibition of PAF-induced blood platelet aggregation in vitro. It is filed as cell-based. As to conditions: Homo sapiens, read-out: IC50 (concentration for 50% inhibition of aggregation). As for the experimental part: To determine the PAF-antagonistic action of substances, use was made of the aggregation of human platelets induced in vitro by PAF. To obtain platelet-rich plasma (PRP), blood is taken from an uncompressed vein using a plastic syringe containing 3.8% strength sodium citrate solution. The ratio between sodium citrate solution and blood is 1:9. After careful mixing, the citrated blood is centrifuged at 150×g (1200 rpm) for 20 minutes. The platelet aggregation is measured by the method worked out by Born and Cross (G. V. R. Born and M. J. Cross, J. Physiol. 168, 178 (1963)), with PAF being added to the continuously stirred PRP to initiate the aggregation. The test substance is added in a volume of 10 ul in each case 2-3 minutes before initiation of the aggregation. The solvents used are either distilled water, ethanol and/or dimethyl sulphoxide. Blanks contain corresponding volumes of these solvents. After the initial absorption has been recorded (2-3 minutes), aggregation is induced with PAF (5×10^-8 M). To assess the effects of substances, use is made of the maximum of the first aggregation wave. The maximum absorption rate (=maximum aggregation×100%) induced by PAF is, in each case, simultaneously checked in a parallel mixture (=blank in one channel of the two-channel aggregometer) for each test mixture (second channel) and used as the 100% value. The aggregation obtained under the influence of the test substance is […].
In the case of `Cc1nnc2n1-c1ccc(Cl)cc1C(c1ccccc1Cl)=NC2` [Triazolam, triazolam, reference compound], the pIC50 is 5.05. Same read-out and setting: under `COC(=O)CCNC(=O)c1ccc2c(c1)C(c1ccccc1Cl)=NCc1ncc(C)n1-2` [compound 2] stands 6.05; under `Cc1nnc2n1-c1ccc(C(=O)NCC(=O)N3CCOCC3)cc1C(c1ccccc1Cl)=NC2` [compound 4], 6.15.

Regarding `COC(=O)C[C@H](NC(=O)c1ccc2c(c1)C(c1ccccc1Cl)=NCc1nnc(C)n1-2)C(=O)OC` [compound 5], the pIC50 is 5.92. Same read-out and setting: the result for `Cc1nnc2n1-c1ccc(C(=O)NC3CCSC3=O)cc1C(c1ccccc1Cl)=NC2` (stereo not drawn) [compound 11] reads 5.46. Consider `Cc1nnc2n1-c1ccc(CC(=O)NCC(=O)N3CCOCC3)cc1C(c1ccccc1Cl)=NC2` [compound 12], for which the pIC50 was 5.96. Same read-out and setting: the result for `COC(=O)[C@@H](CCSC)NC(=O)c1ccc2c(c1)C(c1ccccc1Cl)=NCc1nnc(C)n1-2` [compound 15] reads 6.05. In the case of `CCN(CC)C(=O)[C@H](CC(C)C)NC(=O)c1ccc2c(c1)C(c1ccccc1Cl)=NCc1nnc(C)n1-2` [compound 16], the pIC50 is 6.40. Consider `Cc1nnc2n1-c1ccc(C(=O)N3CCC[C@H]3C(=O)N3CCOCC3)cc1C(c1ccccc1Cl)=NC2` [compound 18], for which the pIC50 is 5.09. For `Cc1nnc2n1-c1ccc(C(=O)N[C@H](C(=O)NC(C)C)C(C)C)cc1C(c1ccccc1Cl)=NC2` [compound 27], the pIC50 is 6.15.

Take `COc1nnc2n1-c1ccc(C(=O)NCC(=O)N3CCOCC3)cc1C(c1ccccc1Cl)=NC2` [compound 33]: the pIC50 was 5.60.

In the case of `C[C@H](NC(=O)c1ccc2c(c1)C(c1ccccc1Cl)=NCc1nnc(C3CC3)n1-2)C(=O)N1CCCC1` [compound 35], the pIC50 is 6.05.

The same experiment, now with this note: read-out: IC50 (concentration for 50% inhibition of aggregation), Table A, human PRP, PAF 5×10^-8 M.
In the case of `Cc1nnc2n1-c1ccc(C(=O)NCC(=O)N3CCOCC3)cc1C(c1ccccc1Cl)NC2` (stereo not drawn) [compound 21], the pIC50 is 5.72. Same read-out and setting: under `Cc1nnc2n1-c1sc(C(=O)N(C)CC(=O)N3CCOCC3)cc1C(c1ccccc1Cl)=NC2` [compound 28] stands 5.72; under `Cc1nnc2n1-c1sc(CCC(=O)NCC(=O)N3CCOCC3)cc1C(c1ccccc1Cl)=NC2` [compound 48], 6.22.
